Experimental data as given in article PMC12055641, “The Study of Antistaphylococcal Potential of Omiganan and Retro-Omiganan Under Flow Conditions” (Probiotics and Antimicrobial Proteins, 2024).
“And” between values parts separate entries of the source, which are not always exact repeats. Equal entries are not always repeated. No end group written: not given here.

Key:
S. aureus ATCC 25923 = test: Membrane depolarization DiSC3(5); type: cell-based, Staphylococcus aureus; conditions: 2 × MIC, DiSC3(5) fluorescence
Experimental: (§1) Membrane depolarization activities of omiganan and retro-omiganan were evaluated using DiSC3(5) (3,3′-dipropylthiadicarbocyanine iodide; Thermo Fischer Scientific, Invitrogen™). The S. aureus ATCC 25923 and S. aureus ATCC 33591 strains were grown at 37 °C up to a mid-log phase (approx. 4 h) in the Mueller–Hinton broth. The cultures were centrifuged (3500 rpm, 7 min) and washed with a 20 mM glucose solution in HEPES buffer (5 mM, pH 7.2). The cells were resuspended in a 5 mM HEPES buffer supplemented with 20 mM glucose and 100 mM KCl (pH 7.2) to an OD 0.05 at 600 nm. The final concentration of the dye was 0.4 μM. The fluorescence was monitored at 20 °C (λex 620 nm and λem 678 nm) with Fluoroskan Ascent FL (Thermo Fisher Scientific) fluorometer. […] A HEPES solution with glucose was used as a negative control. The measurements were conducted twice to ensure the reproducibility.

[1] = tested on: S. aureus ATCC 33591 (MRSA); test: Membrane depolarization DiSC3(5); type: cell-based, Staphylococcus aureus; conditions: 2 × MIC, DiSC3(5) fluorescence
Experimental: as §1

[2] = tested on: mupirocin-resistant MRSA strains; design: method as in PMID 28581672; conditions: all mupirocin-resistant MRSA strains analyzed; cited from earlier work
[3] = incubation with human skin S9 protease; cited from earlier work

Substance | membrane depolarization (S. aureus ATCC 25923) | membrane depolarization [1] | MIC [2] | half-life [3]
KRRWPWWPWRLI-NH2 [Retro-Omiganan] | cause depolarization of S. aureus membranes immediately after the addition | cause depolarization of S. aureus membranes immediately after the addition | – | –
ILRWPWWPWRRK-NH2 [Omiganan] | cause depolarization of S. aureus membranes immediately after the addition | cause depolarization of S. aureus membranes immediately after the addition | 12.5 µM and 22.7 µg/mL | ca. 10 min
